Measurements as given in paper PMC5999181, “UMP kinase activity is involved in proper chloroplast development in rice” (Photosynthesis Research, 2018).

Target: T1, YL2 (YL2-His) (Oryza sativa, UniProt Q5JJV9)
T1 construct: gene Os01g0965400; full-length cDNA (351 residues including putative 58-residue transit peptide) in pET44a, E. coli BL21, Ni-NTA
T1 sequence (Q5JJV9 1-351): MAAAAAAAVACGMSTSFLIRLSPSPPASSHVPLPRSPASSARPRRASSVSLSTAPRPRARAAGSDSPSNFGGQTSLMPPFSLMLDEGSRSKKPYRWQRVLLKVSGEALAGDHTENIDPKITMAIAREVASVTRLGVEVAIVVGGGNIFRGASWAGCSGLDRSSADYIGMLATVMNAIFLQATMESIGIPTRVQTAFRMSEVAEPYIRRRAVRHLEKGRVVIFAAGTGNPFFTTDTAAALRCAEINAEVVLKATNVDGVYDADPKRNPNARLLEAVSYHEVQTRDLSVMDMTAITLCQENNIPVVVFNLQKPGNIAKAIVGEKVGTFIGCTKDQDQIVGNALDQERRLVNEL
Assay: Kinase-Glo luminescence (residual ATP)
Type: biochemical
Conditions: 0.2 mM UMP, 10 μM ATP, 10 mM MgCl2, 1 mM DTT, 50 mM Tris-HCl pH 7.5, 30 °C, 0.5 h

SMILES	Kinase-Glo luminescence (residual ATP)
Nc1ncnc2c1ncn2[C@@H]1O[C@H](COP(=O)(O)OP(=O)(O)OP(=O)(O)O)[C@@H](O)[C@H]1O [ATP]	decreased levels of RLU, reflecting the amount of residual ATP remaining after the UMP kinase reaction
O=c1ccn([C@@H]2O[C@H](COP(=O)(O)O)[C@@H](O)[C@H]2O)c(=O)[nH]1 [UMP]	confirming that YL2 has prokaryotic UMP kinase activity in vitro
